Laboratory results: patent US20120142109A1, “METHOD FOR PRODUCING T CELL POPULATION UNDER PRESENCE OF RETINOIC ACID” (priority 2009, published 2012)

Legend:
Assay type in all cases: cell-based, human
[1] = tested on: T2A24 cell pulsed with MAGE-A4; test: Specific cytotoxic activity of gene-transferred cells, Calcein release
Experimental: Analysis of cytotoxicity of the gene-transferred cell on a MAGE-A4-derived peptide p143 was carried out. […] The suspension was cultured at 37° C. for 1 hour. The cells were washed with a medium not containing Calcein-AM, and mixed with a 10-fold amount of K562 cells (ATCC CCL-243) to prepare Calcein-labeled target cells. The K562 cells were used in order to exclude nonspecific cytotoxic activity due to NK cells commingling with responder cells. The cells on the 10th day after initiation of culture as effector cells were stepwisely diluted with a RPMI 1640 medium containing 10% FBS so as to be 1×10^5 to 1×10^6 cells/mL. Then, 100 μL/well of the dilution was dispended into each well of a 96-well cell culture plate. The Calcein-labeled target cells were adjusted to 1×10^5/mL and added to the wells at 100 μL/well. […] From the each well, 100 μL of the culture supernatant was removed, and the amount of Calcein released into the culture supernatant was measured with a fluorescent plate reader (485 nm/538 nm). “Specific cytotoxic activity (%)” was calculated according to the following mathematical formula 1.
Specific cytotoxic activity(%)=[{(measured value of each well)−(minimum released amount)}/{(maximum released amount)−(minimum released amount)}]×100 [Mathematical formula 1] […]

[2] = tested on: gene-transferred cell; test: Provirus copy number of the transferred gene; settings: Example 3, FIG. 11; ZsGreen gene, virus-bound plate; 10 nM retinoic acid; 7th day
Experimental: The provirus copy number of the transferred gene in the gene-transferred cell was measured with Provirus Copy Number Detection Primer Set. Human (manufactured by TAKARA BIO INC.). In FIG. 6, the ordinate axis indicates the copy number of the transferred gene in a gene-transferred cell. As a result, the copy number was increased by a combination of stimulation by an anti-CD3 antibody alone or fibronectin fragment/anti-CD3 antibody stimulation with addition of retinoic acid, and the increase of the copy number correlated with increase in gene transfer efficiency.
The results of measurement of the copy number of the transferred gene in the gene-transferred cell into which the gene was transferred using the virus-bound plate for gene transfer are shown in FIG. 11. In FIG. 11, the ordinate axis indicates the copy number of the transferred gene in the gene-transferred cell. As a result, the copy number under the combination condition of stimulation by an anti-CD3 antibody alone or fibronectin fragment/anti-CD3 antibody stimulation with addition of retinoic acid was about 2 times the copy number under the condition of no addition of retinoic acid. The copy number correlated with gene transfer efficiency.
The provirus copy number of the transferred gene in the cultured cells was measured using Provirus Copy Number Detection Primer Set. Human (manufactured by TAKARA BIO INC.). […]

[3] = tested on: CD8 single positive and CD4 single positive cells; test: Proportion of ZsGreen positive cells by flow cytometry; settings: Example 3, FIG. 9; gene transfer using virus-bound (fibronectin fragment) plate; 10 nM retinoic acid; 7th day
Experimental: A gene transfer operation was carried out as follows. […] The plate was cultured at 37° C. for 4 hours in a CO2 incubator. The cells after culturing were suspended at 0.1×10^6 cells/mL in a GT-T503 medium containing 1% autologous plasma, 720 IU/mL IL-2, 0.2% HSA, 2.5 μg/mL Fungizone and 10 nM retinoic acid. The resulting suspension was seeded on a 12-well plate, and cultured at 37° C. for 3 days. At the same time, a gene transfer operation and cell culture after gene transfer were similarly carried out using a cell suspension not containing retinoic acid as a control.
Regarding gene transfer using a virus-bound plate for gene transfer, the cell growth rate was measured on the 4th and 7th days, and cell surface markers, the proportion of ZsGreen positive cells and the copy number of a transferred gene were measured on the 7th day.
After initiation of stimulation of the PBMC, the cells on the 7th day in the case of gene transfer using the virus-bound plate for gene transfer, and the cells on the 6th day in the case of gene transfer by a polybrene method were reacted with a PE-Cy7-labeled anti-human CD4 antibody or an APC-Cy7-labeled anti-human CD8 antibody (manufactured by Becton Dickinson) at 4° C. for 20 minutes, washed and, then subjected to flow cytometry analysis using FACScant (manufactured by Becton Dickinson).

[4] = tested on: PBMC; test: Cell growth rate relative to cell number at initiation of culture; settings: Example 2, FIG. 2; fibronectin fragment/anti-CD3 antibody stimulation compared with anti-CD3 antibody alone, regardless of presence or absence of retinoic acid
Experimental: A PBMC prepared from a healthy person from whom informed consent had been obtained was suspended at 0.18×10^6 cells/mL in a GT-T503 medium containing 1% autologous plasma, 720 IU/mL IL-2, 0.2% HSA, 2.5 μg/mL Fungizone and 10 nM retinoic acid. The suspension was added to the fibronectin fragment/anti-CD3 antibody-adherent plate or the anti-CD3 antibody-adherent plate at 2.65 mL/well. As controls, a cell suspension not containing retinoic acid was added to the plates. Each plate was cultured at 37° C. for 4 days in a CO2 incubator.
A gene transfer operation was carried out as follows. The PBMC which had been stimulated with an anti-CD3 antibody alone or a fibronectin fragment/an anti-CD3 antibody for 4 days was added to the virus-bound plate at 0.8×10^6 cells/2.0 mL/well. This plate was cultured at 37° C. overnight in a CO2 incubator. […]
On the 7th day after initiation of stimulation of the PBMC, the cell was seeded at 0.1×10^6 cells/mL, and cultured until the 10th day. The cell growth rate was measured on the 4th, 5th, 7th and 10th days. On the 4th day, cell surface markers before the cell was transferred to the virus-bound plate were measured. On the 10th day, cell surface markers, expression of a transferred TCR and the copy number of a transferred gene were measured. […]

Molecule | cytotoxic activity on the specific target cells ([1]; Example 4, FIG. 15, retinoic acid stimulation group vs absence, cells on 10th day, each E/T ratio) | cytotoxic activity on the specific target cells ([1]; Example 5, FIG. 22, RR, OR and R- groups vs O-, E/T 1:1, cells on 11th day) | copy number of the transferred gene relative to no addition of retinoic acid [2] | increase of proportion of ZsGreen positive cells as compared with no addition of retinoic acid [3] [fold] | cell growth rate [4]
CC1=C(/C=C/C(C)=C/C=C/C(C)=C/C(=O)O)C(C)(C)CCC1 [retinoic acid] | high | higher | about 2 times | 1.5 | 
fibronectin fragment: recombinant fibronectin fragment CH-296, commercially available as RetroNectin (TAKARA BIO INC.) |  |  |  |  | higher
